One data set deals with dairy cows. The following applies: cited from earlier work.
The test system of a further data set is rumen microorganisms. The following applies: in vitro; cited from earlier work.
The subject of another data set is bovine hepatocytes. The following applies: bovine hepatocytes supplemented in vitro; cited from earlier work.
The next data set concerns delta-9-desaturase. Kind of data set: Milkfat substrate/product ratios (SFA : monounsaturated counterpart), proxy for delta-9-desaturase activity. It counts as in vivo, Friesian dairy cows. The note with it: for C:18:C18:1 ratio in milkfat: baseline 0.49; for C:10:C10:1 ratio in milkfat: baseline 12.66; for C:14:C14:1 ratio in milkfat: baseline 14.93; for C:16:C16:1 ratio in milkfat: baseline 17.40. An excerpt: (§1) Ethical approval was obtained from the University of Auckland Animal Ethics Committee to undertake an pilot supplementation study. The study involved supplementing the diets of four Friesian dairy cows with single daily dose of 40 and 160 of ethyl-eicospaentaenoic acid (>98% purity) for nine days. Cows were divided into a high-to-low dose (HTLD) group (n=2) with animals supplemented with 160 grams of EPA at day one with the dose decreasing by 15 grams each day to reach 40 grams at day nine and a low-to-high dose (LTHD) group (n=2) with animals supplemented with 40 grams on day one the dose increasing by 15 grams each day to reach 160 grams at day nine. Feeding and milk sampling was undertaken between 19 and 29 August 2004 at a dairy farm in West Aucldand under the supervision of a supervising veterinarian with experience in caring for the herd. Supplements were given by drenching gun once daily in the morning subsequent to milking. Prior to supplementation each day duplicate 50 ml samples of milk were collected from each animal and stored in 100 ml polyethylene containers in a temperature controlled minus 20 deg C. freezer within one hour of collection. Milk samples were thawed and fatty acids extracted and prepared for analysis. Milkfat was methylated by dissolving in hexane and reaction with 2 molar KOH methanol. 20 milligrams of fat dissolved in 2 mls in N-Hexane then 20 micro-litres of 2 molar KOH methanol was added left to stand for 3 seconds and vortexed vigorously for 30 seconds. The mixture was then allowed to stand for 6 minutes before being neutralized to methyl red with 2 molar HCl in water before being vortexed again and centrifuged (modified method from agilent website also reported in Terry Knight publications) Knight T. W., et al., New Zealand Journal Of Agricultural Research 47:3,: 287-297 SEP (2004). An aliquot of hexane was then taken and analysed by GCFID 6890 (Agilent Corp) with 105 meter 0.25 mm RTX2330 90% bis cyanoprofile column (Restek) and 0.25 micron film thickness. Fatty acids were identified by retention time in comparison with a 37-component mixture (Suplco). Peak areas were corrected for peak response using theoretical response factors (AOCS reference). Results were reported as area under curve.
Saturated Fatty Acids: A reduction in dietary amounts of certain saturated fatty acids (SFAs), including in particular the major milk fatty acid C16:0, a has been recommended by health experts (WHO Technical Report Series 916, WHO Geneva (2003)). Under normal circumstances about 50% of dietary C16:0 is taken up by the mammary gland. […] This decrease in milkfat C16:0 is unlikely to be explained by altered feeding behavior during the study given corresponding changes were not observed in other SFAs. In order to investigate the contribution of further metabolism of C16:0 in the mammary gland to palmitoleic acid (C16:1) we compared substrate/product ratios in milkfat for a number of SFAs and their monounsaturated fatty acid counterparts. These ratios are considered to be a proxy measure for the activity of the delta-9-desaturase activity enzyme. (see Table 1 below).

The test system of another data set is lactating dairy cows. Briefly: Pilot supplementation study in lactating dairy cows: milk fatty acids by GC. The data set is classed as in vivo, Friesian dairy cows.
Description: as §1
A permutation based method of statistical analysis was used to assess FA baseline composition with reference to a reference baseline derived from population of four thousand one hundred NZ Fresian dairy cows. Each fatty acid peak measured in the feeding trial was logged (log base 2), and had the day 0 (baseline) measurement subtracted to report a change from baseline at each time point. Significance of the changes in four-cow and two-cow means was tested by randomly selecting many groups of two or four cows from the herd of 4100 animal reference dataset and comparing the feeding trial results against the mean of logged measurements from the larger reference population. This produced baseline distributions for each group size which were centered at zero to match the baseline centered means from the animals in the feeding trial. Significance thresholds were then adjusted for the number of fatty acid peaks being investigated, and the number of measurements taken.

Regarding `CC/C=C\C/C=C\C/C=C\CCCCCCCC(=O)O` [ALA, alpha linolenic acid], in the data set with dairy cows (duodenal infusion of 500 grams per day of ALA), the EPA in milkfat result is “no concomitant increase”. Further, the “level of ALA in milkfat” value in the data set on dairy cows (duodenal infusion of 500 grams per day) is given as 14%.

On to `CC/C=C\C/C=C\C/C=C\C/C=C\C/C=C\CCCC(=O)O` [EPA, 5,8,11,14,17,-eicosapentaenoic acid (20:5n-3)], for which the “biohydrogenation of linoleic (LA C18:2) and alpha-linolenic (ALA C18:3) acid” value in the data set on rumen microorganisms is given as “inhibition”. The “oxidation of C16:0” value in the data set with bovine hepatocytes is “significant increase”.

Turning to `CC/C=C\C/C=C\C/C=C\C/C=C\C/C=C\CCCC(=O)OCC` [ethyl-eicospaentaenoic acid], in the data set with delta-9-desaturase (Day Eleven), the “C:10:C10:1 ratio, % of baseline” value is recorded as 106.4 % of baseline; the “C:14:C14:1 ratio, % of baseline” value is 110.6 % of baseline; the “C:16:C16:1 ratio, % of baseline” value is listed as 113.4 % of baseline; the “C:18:C18:1 ratio, % of baseline” value was 98 % of baseline. Besides, in the data set on delta-9-desaturase (Day Eleven), the “C:18:C18:1 ratio in milkfat” value is given as 0.48, the “C:10:C10:1 ratio in milkfat” value is 13.46, the “C:14:C14:1 ratio in milkfat” value came out at 16.51 and the “C:16:C16:1 ratio in milkfat” value was 19.67. In addition, in the data set with delta-9-desaturase (Day Five), the “C:10:C10:1 ratio, % of baseline” value is 82.5 % of baseline; the “C:14:C14:1 ratio, % of baseline” value is 83.3 % of baseline; the “C:16:C16:1 ratio, % of baseline” value is 90.6 % of baseline; the “C:18:C18:1 ratio, % of baseline” value is 65.3 % of baseline. For the same compound, in the data set on delta-9-desaturase (Day Five), the “C:18:C18:1 ratio in milkfat” value is on record as 0.32, the “C:14:C14:1 ratio in milkfat” value turned out to be 12.44 and the “C:16:C16:1 ratio in milkfat” value came out at 15.76. Also, the “C:10:C10:1 ratio in milkfat” value with delta-9-desaturase (Day Five, across both groups) worked out at 10.45. Further, in the data set on lactating dairy cows (HTLD group), the “day by which milk DPA rose significantly from baseline” value was “three” and the “day by which milk EPA rose significantly from baseline” value is “two”. In the data set with lactating dairy cows (HTLD group (160 to 40 g/day), peak at day five), the “EPA as a percentage of total fatty acids in milk, peak” value was 1.55 % TFA. Further, the “DPA as a percentage of total fatty acids in milk, peak” value with lactating dairy cows (HTLD group, peak at day six) is recorded as 0.41 % TFA. Also, in the data set with lactating dairy cows (LTHD group), the “day by which milk DPA rose significantly from baseline” value is reported as “seven” and the “day by which milk EPA rose significantly from baseline” value is given as “five”. Further, the “EPA as a percentage of total fatty acids in milk, peak” value in the data set with lactating dairy cows (LTHD group (40 to 160 g/day), peak at day nine) is 1.29 % TFA. Besides, in the data set with lactating dairy cows (LTHD group, peak at day eleven), the “DPA as a percentage of total fatty acids in milk, peak” value is on record as 0.38 % TFA. In addition, the “milkfat stearic acid (C18:0)” value in the data set with lactating dairy cows (already significant by day three) is on record as “dramatic reduction”. In addition, the “maximum reduction of % TFA C16:0 in milk” value in the data set with lactating dairy cows (day nine, across both groups) is listed as 15.44 % of baseline levels. Moreover, the “% TFA C16:0 in milk” value in the data set with lactating dairy cows (day nine, across both groups, baseline 36.78) is on record as 31.1 % TFA. Further, in the data set on lactating dairy cows (in vivo), the “CLA in milk, increase over baseline levels at maximum” value was found to be 375% and the “CLA in milk, maximum level” value is on record as 4.2 % of total fatty acids. The “CLA in milk, mean increase over baseline levels” value in the data set on lactating dairy cows (mean) was 274%. In addition, the DHA in milk entry in the data set on lactating dairy cows (undetectable at baseline, throughout the study) is listed as “remained unchanged”.

The record behind these values is patent US20100021555A1, “Compositions containing high omega-3 and low saturated fatty acid levels” (priority 2004, published 2010).
